Reference: US9421237B2, “Tripeptide boronic acid or boronic ester, preparative method and use thereof” (PEKING UNIVERSITY, priority 2009, dated 2016)

What was measured:
[1] = system: BGC-823 (human gastric carcinoma cell strain); assay: In vitro anti-tumor activity (IC50), standard MTT method; format: cell-based; conditions: 72 h, average of three determinations
Experimental: (§1) HL-60, BXPC-3 and U266 were obtained from the American Type Culture Collection (Manassas, Va.), and BGC-823 (human gastric carcinoma cell strain) was obtained from China Pharmaceutical University.
(§2) Test methods: HL-60 cells were cultured in IMDM medium containing 20% fetal bovine serum at 37° C. in 5% CO2; BGC-823 cells and BXPC-3 cells were cultured in RPMI1640 medium containing 10% fetal bovine serum at 37° C. in 5% CO2; U266 cells were cultured in RPMI1640 medium containing 15% fetal bovine serum at 37° C. in 5% CO2.
(§3) The cell growth was measured by the standard MTT method. A dispersions (150 μL, containing 3000 cells) medium was added into each well of a 96-well plate and allowed to grow, after 24 h, ten kinds of medium (50 μL) containing different concentrations of drugs were added into the corresponding wells, and continued to incubate for 72 h. Then a solution containing 5 mg/ml MTT (20 μL) was added into each well and incubated for another 4 h at 37° C. The plate was then centrifugated at 1000 rpm at 4° C. for 5 min, and the medium in upper layer was carefully discarded. The precipitates were dissolved in 100 μL of DMSO, and absorbance was read with an Infinite M200 (Tecan, Austria) microplate reader at 540 nm.
(§4) The result was expressed as IC50 value, which is the average value of three independent determinations.

[2] = system: BXPC-3 (human pancreatic cancer cell strain); assay: as above; format: cell-based; conditions: 72 h, average of three determinations
Experimental: as §1, §2, §3, §4

[3] = system: HL-60 (promyelocytic leukemia cell strain); assay: as above; format: cell-based; conditions: Homo sapiens, 72 h, average of three determinations
Experimental: as §1, §2, §3, §4

[4] = system: U266 (multiple myeloma cell strain); assay: as above; format: cell-based; conditions: Homo sapiens, U-266, 72 h, average of three determinations
Experimental: as §1, §2, §3, §4

[5] = system: HL-60, BXPC-3, U266 and BGC-823 cells; assay: In vitro anti-tumor activity (IC50), summary over the four tumor cell lines; format: cell-based
Description: According to the results of aforementioned preliminary anti-tumor activities screening tests, those compounds which have better anti-tumor activities were selected to measure their IC50 values on four types of tumor cell lines: HL-60 (promyelocytic leukemia cell strain), BXPC-3 (human pancreatic cancer cell strain), U266 (multiple myeloma cell strain) and BGC-823 (human gastric carcinoma cell strain). HL-60, BXPC-3 and U266 were obtained from the American Type Culture Collection (Manassas, Va.), and BGC-823 (human gastric carcinoma cell strain) was obtained from China Pharmaceutical University.
as §2
The cell growth was measured by the standard MTT method. […] The precipitates were dissolved in 100 μL of DMSO, and absorbance was read with an Infinite M200 (Tecan, Austria) microplate reader at 540 nm.
as §4

melting point | Compound | IC50 [1] | IC50 [2] | IC50 [3] | IC50 [4] | Inhibition of growth of three types of cells, compared with PS341 [5]
157 to 159 °C | CC(C)C[C@H](NC(=O)[C@H](Cc1ccc2ccccc2c1)NC(=O)[C@H](CC(C)C)NC(=O)c1cnccn1)B(O)O [Compound 6f, N-pyrazineformyl-L-leucyl-L-naphthylalanyl-L-leucine Boronic Acid] | 600 nM | 21.2 nM | 4.6 nM | 9.9 nM | better than those of PS341
– | CC(C)C[C@H](NC(=O)[C@H](Cc1ccc2ccccc2c1)NC(=O)[C@H](Cc1ccccc1)NC(=O)c1cnccn1)B(O)O [Compound 6g, N-pyrazineformyl-L-phenylalanyl-L-naphthylalanyl-L-leucine Boronic Acid] | 1040 nM | 28.7 nM | 7.4 nM | 15.8 nM | –
